In article PMC8034656 (2021):

System: single oligonucleotide with a low probability of self-hybridization (ssDNA) (DNA, single strand) GAACAACGCTCCAACCATCGC
Assay: absorption and fluorescence titration
Details: 3 µM DOX; absorption changes, fluorescence hardly quenched

binding: weak
SMILES: COc1cccc2c1C(=O)c1c(O)c3c(c(O)c1C2=O)C[C@@](O)(C(=O)CO)C[C@@H]3O[C@H]1C[C@H](N)[C@H](O)[C@H](C)O1
